Source: publication PMC7287735 (Molecules, 2020)
Read-outs that look alike come from different tables or passages of the source.

Tests used:
[1] = system: HCoV-229E; assay: Anti-coronavirus cytoprotection assay (XTT, reduction of viral cytopathic effect) in MRC-5 cells; settings: for activity against HCoV-229E at the tested concentrations: MRC-5 cells, high test concentration 100 µM; for Therapeutic Index (TC50/EC50): MRC-5/HCoV-229E
[2] = system: MRC-5 cells; assay: Cellular toxicity to MRC-5 cells (XTT); settings: 6 days, duplicate data points
[3] = Human coronavirus 229E, MRC5, 144 h, read-out: EC50 (effective concentration that reduced 50% of viral cytopathic effect), HCoV-229E in MRC-5 cells, 6 days, triplicate data points
[4] = listed as 5′-O-tetradecanoyl ester conjugate of FTC (9)

With `Nc1ccn([C@H]2CS[C@@H](CO)O2)c(=O)n1` [3TC (6), 2′,3′-Dideoxy-3′-thiacytidine] the EC50 [1, 3] was greater than 100 µM, the “activity against HCoV-229E at the tested concentrations” value (“activity against HCoV-229E” below) [1] was “not active” and the “TC50 (toxic concentration that killed 50% of MRC-5 cells)” value [2] was greater than 100 µM.
In the case of `CCSCCCCCCCCCCCC(=O)OC[C@H]1O[C@@H](n2cc(C)c(=O)[nH]c2=O)C[C@@H]1F` [5′-O-(12-thioethydodecanoyl)FLT (5), 5′-O-(12-thioethydodecanoyl)FLT], the EC50 [1, 3] is reported as greater than 45.4 µM, the “TC50 (toxic concentration that killed 50% of MRC-5 cells)” value [2] is reported as 45.4 µM and the “TC50 (toxic concentration that killed 50% of MRC-5 cells)” value ([2]; listed as 5) is reported as 45.4 to 55.3 µM.
With `CCCCCCCCCCCCCC(=O)OC[C@@H]1O[C@H](n2ccc(N)nc2=O)CS1` [5′-O-(tetradecanoyl)3TC (7), 5′-O-(tetradecanoyl)3TC] the EC50 [1, 3] was greater than 47.5 µM, the “TC50 (toxic concentration that killed 50% of MRC-5 cells)” value [2] was 47.5 µM and the “TC50 (toxic concentration that killed 50% of MRC-5 cells)” value ([2]; listed as 7) was 45.4 to 55.3 µM.
With `CCCCCCCCCCCCCC(=O)OC[C@@H]1O[C@H](n2cc(F)c(N)nc2=O)CS1` [5′-O-(tetradecanoyl)FTC (9), 5′-O-(tetradecanoyl)FTC] the EC50 [1, 3] was 72.8 µM, the “Therapeutic Index (TC50/EC50)” value [1] was 1.20 and the “Therapeutic Index (TC50/EC50)” value [1, 4] was 1.2. For the same compound, the “TC50 (toxic concentration that killed 50% of MRC-5 cells)” value [2] was 87.5 µM and the “TC50 (toxic concentration that killed 50% of MRC-5 cells)” value [2, 4] was 87.5 ± 1.34 µM.
With `C#C[C@]1(CO)O[C@@H](n2cnc3c(N)nc(F)nc32)C[C@@H]1O` [EFdA (3), 4′-ethynyl-2-fluoro-2′-deoxyadenosine] the EC50 [1, 3] was greater than 55.3 µM, the “TC50 (toxic concentration that killed 50% of MRC-5 cells)” value [2] was 55.3 µM and the “TC50 (toxic concentration that killed 50% of MRC-5 cells)” value ([2]; listed as 3) was 45.4 to 55.3 µM.
For `Cc1cn([C@H]2C[C@H](F)[C@@H](CO)O2)c(=O)[nH]c1=O` [FLT (4), 3′-Fluoro-3′-deoxythymidine], the EC50 [1, 3] was greater than 100 µM, the “activity against HCoV-229E” value [1] was “not active” and the “TC50 (toxic concentration that killed 50% of MRC-5 cells)” value [2] was greater than 100 µM.
With `Nc1nc(=O)n([C@H]2CS[C@@H](CO)O2)cc1F` [FTC (8), 2′,3′-dideoxy-5-fluoro-3′-thiacytidine] the EC50 [1, 3] was greater than 100 µM, the “activity against HCoV-229E” value [1] was “not active” and the “TC50 (toxic concentration that killed 50% of MRC-5 cells)” value [2] was greater than 100 µM.
For `CCC(CC)COC(=O)[C@H](C)N[P@](=O)(OC[C@H]1O[C@@](C#N)(c2ccc3c(N)ncnn23)[C@H](O)[C@@H]1O)Oc1ccccc1` [Remdesivir (1), Remdesivir], the EC50 [1, 3] was 0.067 ± 0.012 µM, the EC50 ([1]; read-out: EC50 (effective concentration that reduced 50% of viral cytopathic effect), HCoV-229E in MRC-5 cells, 6 days, triplicate data points) was 0.07 µM and the “TC50 (toxic concentration that killed 50% of MRC-5 cells)” value [2] was greater than 2.0 µM. For the same compound, the “TC50 (toxic concentration that killed 50% of MRC-5 cells)” value ([2]; listed as Remdesivir) was greater than 2.0 µM, the “TC50 (toxic concentration that killed 50% of MRC-5 cells)” value ([2]; listed as remdesivir) was greater than 2.00 µM and the “TC50 (toxic concentration that killed 50% of MRC-5 cells)” value ([2]; listed as remdesivir (1)) was greater than 2 ± 0 µM.
With `C[C@H](Cn1cnc2c(N)ncnc21)OCP(=O)(O)O` [TFV (2), Tenofovir] the EC50 [1, 3] was greater than 100 µM and the “TC50 (toxic concentration that killed 50% of MRC-5 cells)” value [2] was greater than 100 µM.
